# Reference: ChEMBL document CHEMBL1201862, “PubChem BioAssay data set” (2004)
# Activity calls are given as the source filed them.
# Key:
# [1] = target: T1, Carboxy-terminal domain RNA polymerase II polypeptide A small phosphatase 1 (Homo sapiens, UniProt Q9GZU7); test: CTDSP1 inhibitors, concentration-response, biochemical, absorbance readout, ultra-high-throughput screen actives (AID 540297); type: functional
# T1 sequence (Q9GZU7 whole entry): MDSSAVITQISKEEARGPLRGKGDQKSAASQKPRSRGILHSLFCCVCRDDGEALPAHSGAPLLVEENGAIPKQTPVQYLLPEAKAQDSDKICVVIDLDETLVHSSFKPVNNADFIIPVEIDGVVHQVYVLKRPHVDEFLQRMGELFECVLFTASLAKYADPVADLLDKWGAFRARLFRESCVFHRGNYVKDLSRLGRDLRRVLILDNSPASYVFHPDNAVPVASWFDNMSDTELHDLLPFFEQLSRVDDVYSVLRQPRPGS
# [2] = target: Estrogen receptor beta (Homo sapiens, UniProt Q92731); test: blockers of SRC-3 recruitment to ERβ – biochemical, ELISA, streptavidin-HRP readout, orthogonal assay, confirmation (AID 1060)
# [3] = target: Intestinal-type alkaline phosphatase (Mus musculus, UniProt P24822); test: PubChem AID 488785; type: functional
# Intestinal-type alkaline phosphatase (Mus musculus, UniProt P24822), sequence (P24822 whole entry): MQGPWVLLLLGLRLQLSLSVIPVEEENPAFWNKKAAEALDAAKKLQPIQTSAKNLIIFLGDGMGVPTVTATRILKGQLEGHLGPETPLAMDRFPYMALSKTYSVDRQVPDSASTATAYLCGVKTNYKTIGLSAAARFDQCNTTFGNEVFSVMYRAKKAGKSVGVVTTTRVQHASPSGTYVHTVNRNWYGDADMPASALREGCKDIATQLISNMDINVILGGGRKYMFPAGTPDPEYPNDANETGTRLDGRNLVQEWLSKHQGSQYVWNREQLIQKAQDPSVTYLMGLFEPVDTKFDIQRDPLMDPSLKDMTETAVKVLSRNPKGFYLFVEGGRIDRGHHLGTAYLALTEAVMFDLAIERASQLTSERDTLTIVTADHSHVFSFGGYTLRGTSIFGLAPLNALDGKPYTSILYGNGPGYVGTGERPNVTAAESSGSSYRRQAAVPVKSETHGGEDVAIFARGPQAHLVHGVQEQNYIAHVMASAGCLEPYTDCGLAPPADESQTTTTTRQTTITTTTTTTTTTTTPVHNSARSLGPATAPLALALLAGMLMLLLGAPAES
# [4] = target: Intestinal-type alkaline phosphatase (Homo sapiens, UniProt P09923); test: inhibition of human intestinal alkaline phosphatase – biochemical, dose response (AID 488876); type: functional
# Intestinal-type alkaline phosphatase (Homo sapiens, UniProt P09923), sequence (P09923 whole entry): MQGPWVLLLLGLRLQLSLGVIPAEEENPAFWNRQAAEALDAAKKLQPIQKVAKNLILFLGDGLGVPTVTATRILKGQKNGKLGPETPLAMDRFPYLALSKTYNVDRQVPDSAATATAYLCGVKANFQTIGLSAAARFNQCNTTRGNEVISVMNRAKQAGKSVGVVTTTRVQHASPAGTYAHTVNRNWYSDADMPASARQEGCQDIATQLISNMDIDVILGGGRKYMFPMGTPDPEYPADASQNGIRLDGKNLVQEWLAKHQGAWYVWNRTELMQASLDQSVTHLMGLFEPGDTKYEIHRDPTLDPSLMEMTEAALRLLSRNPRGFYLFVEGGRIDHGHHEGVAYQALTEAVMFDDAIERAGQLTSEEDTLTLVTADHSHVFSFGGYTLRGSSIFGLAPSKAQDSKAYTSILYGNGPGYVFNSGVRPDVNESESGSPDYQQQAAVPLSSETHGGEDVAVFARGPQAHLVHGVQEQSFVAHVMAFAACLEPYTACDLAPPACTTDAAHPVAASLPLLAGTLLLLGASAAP
# [5] = target: T2, Alkaline phosphatase, tissue-nonspecific isozyme (Homo sapiens, UniProt P05186); test: TNAP enzyme inhibition by screening hits, dose response, selectivity assay for mouse IAP inhibitor project, biochemical, human TNAP, uHTS hits (AID 488906); type: functional
# T2 sequence (P05186 whole entry): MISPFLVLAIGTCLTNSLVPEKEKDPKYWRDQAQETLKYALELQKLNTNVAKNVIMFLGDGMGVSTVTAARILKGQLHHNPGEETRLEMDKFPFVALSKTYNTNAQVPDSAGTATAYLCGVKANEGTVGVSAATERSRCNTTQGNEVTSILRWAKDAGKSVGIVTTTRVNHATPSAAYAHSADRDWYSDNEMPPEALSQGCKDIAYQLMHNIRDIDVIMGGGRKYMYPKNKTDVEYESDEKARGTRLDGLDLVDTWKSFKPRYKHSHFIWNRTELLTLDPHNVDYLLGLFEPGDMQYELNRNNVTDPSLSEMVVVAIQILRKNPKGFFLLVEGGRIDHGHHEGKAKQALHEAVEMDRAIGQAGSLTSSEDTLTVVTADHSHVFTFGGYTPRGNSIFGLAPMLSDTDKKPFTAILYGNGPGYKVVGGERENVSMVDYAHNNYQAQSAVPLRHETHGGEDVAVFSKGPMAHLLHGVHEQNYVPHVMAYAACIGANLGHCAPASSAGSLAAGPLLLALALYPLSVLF
# [6] = target: Heat shock protein HSP 90-alpha (Homo sapiens, UniProt P07900); type: functional, organism-based
# [7] = target: Exodeoxyribonuclease V (Escherichia coli (strain K12), UniProt P04993+P07648+P08394); test: RecBCD inhibition via phage-restricted bacterial growth – absorbance, V66 E. coli, mutant T4 phage, counter-screen for AddAB inhibitor project, dose response (AID 492957); type: functional, cell-based, Escherichia coli str. K-12 substr. MG1655
# [8] = fluconazole-exposed Candida albicans growth modulators – fluorescence, retest, confirmation (AID 2467); type: functional, cell-based
# [9] = Luminescence Cell-Based Dose Retest to Confirm Inhibitors of Cancer Stem Cells. [Related pubchem assays (depositor defined):AID2717, AID2721]; type: functional; details: Homo sapiens
# [10] = NIH-3T3 fibroblast cytotoxicity, dose response, cytotoxicity control, cell-based, fluorescence, Alamar Blue, secondary assay (AID 2327); type: functional;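 also: NIH-3T3 mouse fibroblasts cultured with fluconazole at 8 µg/mL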
# [11] = Counterscreen for AddAB inhibitors: absorbance-based bacterial cell-based high throughput dose response assay for inhibitors of bacterial viability. [Related pubchem assays (depositor defined):AID435030, AID449728, AID449731, AID488942, AID488955, AID488956]; type: functional
# [12] = system: H9c2; test: cells; type: functional, cell-based; details: Rattus norvegicus, H9c2, Myocardium;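 also: confirmatory concentration-response retest of ultra-high-throughput screening hits for modulation of myocardial damage; cell death induced by hydrogen peroxide oxidative stress; compound pretreatment for 60 min then peroxide exposure for 2 h; potency is for protecting the cells against peroxide damage rather than for killing them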
# [13] = target: DNA dC->dU-editing enzyme APOBEC-3A (Homo sapiens, UniProt P31941); test: Dose Response confirmation of small molecule APOBEC3A DNA Deaminase Inhibitors via a fluorescence-based single-stranded DNA deaminase assay. [Related pubchem assays (depositor defined):AID493011, AID493024]; type: functional
# DNA dC->dU-editing enzyme APOBEC-3A, sequence (P31941 whole entry): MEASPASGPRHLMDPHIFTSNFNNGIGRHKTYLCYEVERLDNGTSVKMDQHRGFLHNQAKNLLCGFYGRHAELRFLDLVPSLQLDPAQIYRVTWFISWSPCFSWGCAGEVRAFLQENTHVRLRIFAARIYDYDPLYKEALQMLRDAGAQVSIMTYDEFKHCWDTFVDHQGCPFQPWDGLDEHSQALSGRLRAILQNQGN
# [14] = target: DNA dC->dU-editing enzyme APOBEC-3G (Homo sapiens, UniProt Q9HC16); type: functional;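 also: Dose-response counterscreen measuring inhibition of APOBEC3G DNA deaminase activity, run while confirming APOBEC3A inhibitors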
# DNA dC->dU-editing enzyme APOBEC-3G, sequence (Q9HC16 whole entry): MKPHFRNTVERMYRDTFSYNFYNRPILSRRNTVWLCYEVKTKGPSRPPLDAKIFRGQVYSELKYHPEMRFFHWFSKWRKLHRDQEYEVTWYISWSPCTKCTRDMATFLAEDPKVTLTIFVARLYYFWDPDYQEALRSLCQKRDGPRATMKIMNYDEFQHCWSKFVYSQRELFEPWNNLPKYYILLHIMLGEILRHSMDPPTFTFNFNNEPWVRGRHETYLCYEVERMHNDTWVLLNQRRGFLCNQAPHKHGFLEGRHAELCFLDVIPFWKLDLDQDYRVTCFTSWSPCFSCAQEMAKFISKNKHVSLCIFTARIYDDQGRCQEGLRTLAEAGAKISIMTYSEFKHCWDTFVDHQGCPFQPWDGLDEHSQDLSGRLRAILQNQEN
# [15] = viability of HCT116 lacking mutant beta-catenin – cell-based, human colon tumor, dose response (AID 1045); type: functional;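 also: HCT116 colon tumor cells with beta catenin knocked out; cells exposed to compound for 60 hours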
# [16] = DRD fibroblast viability loss – cell-based, non-viral oncogenic, luminescence, dose response (AID 1934); type: functional; details: Homo sapiens
# [17] = system: HEK293; test: inhibition of NOD1-driven NF-kB reporter – cell-based, luminescence, uHTS, primary screen (AID 1578); type: functional; details: Homo sapiens
# [18] = system: HEK293; test: cells; type: functional, cell-based; details: Homo sapiens
# [19] = system: BJ; test: cells; type: functional, cell-based; details: Homo sapiens
# [20] = system: BJ; test: growth inhibition of engineered Ras-driven BJ cells – cell-based, alamar blue fluorescence, cherrypicked samples, dose response (AID 2631); type: functional; details: Homo sapiens;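 also: confirmatory dose-response assay in RAS-dependent BJ fibroblasts engineered with TERT, LT and ST, with cytotoxicity read by fluorescence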
# [21] = system: HEK293; test: cells; type: functional, cell-based; details: Homo sapiens; remark: listed apart in the source
# [22] = target: Perilipin-1/ABHD5 (Homo sapiens, UniProt O60240+Q8WTS1); test: Luminescence-based biochemical high throughput dose response assay for inhibitors of the interaction of the lipase co-activator protein, abhydrolase domain containing 5 (ABHD5) with perilipin-1 (PLIN1) (2K validation set). [Related pubchem assays (depositor defined):AID493027, AID493057]
# Perilipin-1/ABHD5, sequence (Q8WTS1 whole entry, the tested form may be a part): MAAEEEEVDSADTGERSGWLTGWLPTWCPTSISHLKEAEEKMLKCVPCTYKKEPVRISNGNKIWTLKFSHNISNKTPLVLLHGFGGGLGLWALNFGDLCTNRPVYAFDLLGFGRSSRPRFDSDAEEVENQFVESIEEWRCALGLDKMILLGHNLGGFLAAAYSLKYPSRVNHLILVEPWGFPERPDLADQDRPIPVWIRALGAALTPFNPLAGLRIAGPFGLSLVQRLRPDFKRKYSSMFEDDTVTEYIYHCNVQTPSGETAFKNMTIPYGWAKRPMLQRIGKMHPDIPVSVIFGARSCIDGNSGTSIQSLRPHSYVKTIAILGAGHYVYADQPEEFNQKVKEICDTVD
# Perilipin-1/ABHD5, sequence (O60240 whole entry, the tested form may be a part): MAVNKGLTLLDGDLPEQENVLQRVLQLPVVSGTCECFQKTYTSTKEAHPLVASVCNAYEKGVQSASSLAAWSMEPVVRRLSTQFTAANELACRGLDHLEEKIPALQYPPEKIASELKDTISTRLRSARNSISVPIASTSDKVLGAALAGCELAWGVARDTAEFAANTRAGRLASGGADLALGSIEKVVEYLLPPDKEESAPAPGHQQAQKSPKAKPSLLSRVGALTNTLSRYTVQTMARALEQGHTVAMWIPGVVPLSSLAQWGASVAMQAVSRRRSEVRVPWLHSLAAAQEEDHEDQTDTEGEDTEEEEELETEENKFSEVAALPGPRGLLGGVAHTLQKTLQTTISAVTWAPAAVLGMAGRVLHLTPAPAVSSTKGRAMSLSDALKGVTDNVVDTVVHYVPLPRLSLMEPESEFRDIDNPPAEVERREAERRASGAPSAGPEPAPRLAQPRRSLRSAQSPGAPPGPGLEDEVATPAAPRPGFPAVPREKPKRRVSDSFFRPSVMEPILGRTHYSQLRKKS
# [23] = target: Nucleotide-binding oligomerization domain-containing protein 2 (Homo sapiens, UniProt Q9HC29); test: inhibition of NOD2-driven NF-kB reporter – cell-based, luminescence, uHTS, HEK293 (AID 1566); type: functional
# Nucleotide-binding oligomerization domain-containing protein 2, sequence (Q9HC29 whole entry, the tested form may be a part): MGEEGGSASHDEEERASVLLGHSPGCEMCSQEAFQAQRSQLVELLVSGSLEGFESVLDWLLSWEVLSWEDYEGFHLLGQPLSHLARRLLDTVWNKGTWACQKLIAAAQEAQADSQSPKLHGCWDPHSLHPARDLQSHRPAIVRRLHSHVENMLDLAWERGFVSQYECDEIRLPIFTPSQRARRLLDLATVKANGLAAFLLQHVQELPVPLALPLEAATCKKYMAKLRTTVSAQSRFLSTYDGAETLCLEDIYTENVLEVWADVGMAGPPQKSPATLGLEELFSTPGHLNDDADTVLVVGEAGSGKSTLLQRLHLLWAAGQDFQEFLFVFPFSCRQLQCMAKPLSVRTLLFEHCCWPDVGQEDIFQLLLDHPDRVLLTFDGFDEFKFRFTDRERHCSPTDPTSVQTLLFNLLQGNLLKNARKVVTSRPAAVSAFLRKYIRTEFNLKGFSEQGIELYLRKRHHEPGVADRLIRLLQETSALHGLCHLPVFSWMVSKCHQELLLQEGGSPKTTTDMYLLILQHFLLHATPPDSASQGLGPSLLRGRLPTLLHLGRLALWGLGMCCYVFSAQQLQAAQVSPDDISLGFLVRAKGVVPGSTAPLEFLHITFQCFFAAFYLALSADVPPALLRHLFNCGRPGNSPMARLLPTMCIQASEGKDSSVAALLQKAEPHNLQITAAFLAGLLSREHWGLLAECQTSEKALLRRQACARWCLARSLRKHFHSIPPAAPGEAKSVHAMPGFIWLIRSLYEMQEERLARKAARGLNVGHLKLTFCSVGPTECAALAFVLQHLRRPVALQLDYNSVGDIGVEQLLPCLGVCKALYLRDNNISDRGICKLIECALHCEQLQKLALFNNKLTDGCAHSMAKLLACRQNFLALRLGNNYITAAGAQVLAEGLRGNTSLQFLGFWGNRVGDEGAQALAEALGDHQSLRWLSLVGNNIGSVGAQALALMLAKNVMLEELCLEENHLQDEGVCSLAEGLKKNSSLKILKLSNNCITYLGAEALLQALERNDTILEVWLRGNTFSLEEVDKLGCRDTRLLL
# [24] = system: BJ; test: BJ-TERT fibroblast viability loss – cell-based, RAS-independent, luminescence, dose response (AID 1933); type: functional; details: Homo sapiens
# [25] = viability of PTEN-deleted HCT116 cells – cell-based, HCT116 PTEN knockout, dose response (AID 1047); type: functional;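 also: HCT116 colon tumor cells with PTEN knocked out; cells exposed to compound for 60 hours before readout; potency for loss of cell viability measured by luminescence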
# [26] = system: HEK293; test: cells; type: functional, cell-based; details: Homo sapiens; remark: listed apart in the source
# [27] = microbe, parasite or virus in culture; type: functional; details: Mycobacterium tuberculosis
# [28] = target: 1-acylglycerol-3-phosphate O-acyltransferase ABHD5/Perilipin-5 (Homo sapiens, UniProt Q00G26+Q8WTS1); test: Luminescence-based biochemical high throughput dose response assay for inhibitors of the interaction of the lipase co-activator protein, abhydrolase domain containing 5 (ABHD5) with perilipin-5 (MLDP; PLIN5) (2K validation set). [Related pubchem assays (depositor defined):AID493035, AID493241]
# 1-acylglycerol-3-phosphate O-acyltransferase ABHD5/Perilipin-5, sequence (Q00G26 whole entry, the tested form may be a part): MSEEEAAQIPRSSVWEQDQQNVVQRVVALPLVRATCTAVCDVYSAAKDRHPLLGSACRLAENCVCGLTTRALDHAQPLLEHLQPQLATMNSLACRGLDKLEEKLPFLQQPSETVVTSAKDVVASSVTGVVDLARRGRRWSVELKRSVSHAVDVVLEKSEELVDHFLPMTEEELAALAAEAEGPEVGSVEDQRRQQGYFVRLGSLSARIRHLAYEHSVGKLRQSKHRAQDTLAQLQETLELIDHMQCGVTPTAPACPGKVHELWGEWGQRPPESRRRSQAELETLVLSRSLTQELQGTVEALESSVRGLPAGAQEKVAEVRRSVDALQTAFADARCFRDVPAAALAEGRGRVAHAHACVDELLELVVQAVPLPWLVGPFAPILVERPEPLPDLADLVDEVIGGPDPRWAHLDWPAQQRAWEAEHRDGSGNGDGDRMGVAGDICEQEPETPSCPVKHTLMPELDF
# 1-acylglycerol-3-phosphate O-acyltransferase ABHD5/Perilipin-5, sequence (Q8WTS1 whole entry, the tested form may be a part): as the sequence (Q8WTS1 whole entry, the tested form may be a part) above
# [29] = system: HEK293; test: NOD2 signaling inhibitors in MDP-stimulated cells, cell-based, uHTS, luminescence (AID 2001); type: functional; details: Homo sapiens
# [30] = target: T3, Protein RecA (Mycobacterium tuberculosis, UniProt P9WHJ3); test: Fluorescence Cell-Free Homogeneous Dose Retest to Identify Inhibitors of RecA-Intein Splicing Activity. [Related pubchem assays (depositor defined):AID2097, AID2223, AID489010, AID492950]; type: functional
# T3 sequence (P9WHJ3 whole entry): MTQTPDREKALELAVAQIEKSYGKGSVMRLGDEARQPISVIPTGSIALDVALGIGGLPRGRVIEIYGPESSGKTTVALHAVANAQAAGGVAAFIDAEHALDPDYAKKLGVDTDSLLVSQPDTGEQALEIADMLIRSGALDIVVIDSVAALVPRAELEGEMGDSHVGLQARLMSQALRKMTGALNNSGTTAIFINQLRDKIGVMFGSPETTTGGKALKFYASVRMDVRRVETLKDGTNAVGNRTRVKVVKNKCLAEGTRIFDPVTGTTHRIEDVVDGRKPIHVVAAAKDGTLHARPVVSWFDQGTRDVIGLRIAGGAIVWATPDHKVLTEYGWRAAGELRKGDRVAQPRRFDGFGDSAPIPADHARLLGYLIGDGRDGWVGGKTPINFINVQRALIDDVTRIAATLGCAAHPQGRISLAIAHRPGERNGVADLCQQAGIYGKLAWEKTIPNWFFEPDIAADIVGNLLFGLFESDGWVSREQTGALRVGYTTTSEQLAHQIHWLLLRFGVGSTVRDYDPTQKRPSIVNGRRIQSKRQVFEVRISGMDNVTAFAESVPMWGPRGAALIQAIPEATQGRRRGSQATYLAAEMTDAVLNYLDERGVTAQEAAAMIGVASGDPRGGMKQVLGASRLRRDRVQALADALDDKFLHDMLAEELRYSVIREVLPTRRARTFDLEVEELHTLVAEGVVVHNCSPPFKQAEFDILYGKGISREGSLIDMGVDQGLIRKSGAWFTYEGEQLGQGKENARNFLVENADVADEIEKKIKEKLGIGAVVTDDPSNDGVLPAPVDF
# [31] = system: BJ; test: BJ-TERT-LT-ST fibroblast viability loss – cell-based, RAS-independent, luminescence, dose response (AID 1935); type: functional; details: Homo sapiens;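 also: BJ fibroblasts immortalized with TERT plus LT and ST oncogenes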
# [32] = target: T4, Replicative DNA helicase DnaB (Mycobacterium tuberculosis, UniProt P9WMR3); test: DnaB intein splicing inhibitors, dose response, biochemical, cell-free fluorescence (AID 449749); type: functional
# T4 sequence (P9WMR3 whole entry): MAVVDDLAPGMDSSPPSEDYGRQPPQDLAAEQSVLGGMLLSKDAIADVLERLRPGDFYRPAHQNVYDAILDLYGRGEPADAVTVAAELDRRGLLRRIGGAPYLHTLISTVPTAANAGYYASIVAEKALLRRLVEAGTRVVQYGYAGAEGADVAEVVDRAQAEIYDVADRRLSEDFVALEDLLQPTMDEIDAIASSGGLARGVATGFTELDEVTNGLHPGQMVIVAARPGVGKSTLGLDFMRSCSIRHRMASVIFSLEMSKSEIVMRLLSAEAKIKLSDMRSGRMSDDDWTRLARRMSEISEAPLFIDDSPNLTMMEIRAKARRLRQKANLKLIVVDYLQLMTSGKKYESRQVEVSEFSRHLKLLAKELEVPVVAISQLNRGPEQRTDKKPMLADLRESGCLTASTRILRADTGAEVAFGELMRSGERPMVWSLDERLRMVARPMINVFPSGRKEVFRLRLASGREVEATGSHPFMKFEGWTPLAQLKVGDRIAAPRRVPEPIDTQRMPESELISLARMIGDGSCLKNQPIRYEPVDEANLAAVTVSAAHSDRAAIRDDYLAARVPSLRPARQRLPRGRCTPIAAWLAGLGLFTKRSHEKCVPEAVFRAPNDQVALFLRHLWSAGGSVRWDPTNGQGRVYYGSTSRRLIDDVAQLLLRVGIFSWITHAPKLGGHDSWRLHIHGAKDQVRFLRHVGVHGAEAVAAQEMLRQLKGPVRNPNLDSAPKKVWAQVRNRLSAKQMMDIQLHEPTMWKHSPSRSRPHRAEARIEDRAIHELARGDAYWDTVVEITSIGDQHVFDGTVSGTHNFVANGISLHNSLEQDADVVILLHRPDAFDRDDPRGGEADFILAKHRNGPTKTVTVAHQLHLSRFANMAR
# [33] = target: T5, Ubiquitin-conjugating enzyme E2 N (Homo sapiens, UniProt P61088); type: functional
# T5 sequence (P61088 whole entry): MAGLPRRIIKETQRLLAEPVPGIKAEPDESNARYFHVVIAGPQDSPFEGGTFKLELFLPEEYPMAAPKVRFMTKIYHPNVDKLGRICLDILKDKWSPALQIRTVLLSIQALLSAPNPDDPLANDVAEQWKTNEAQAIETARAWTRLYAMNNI
# [34] = target: T6, Bcl-2-related protein A1 (Mus musculus, UniProt Q07440); type: functional;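 also: confirmatory dose–response counterscreen on Bfl-1, used to check hits from a UBC13 polyubiquitin inhibitor campaign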
# T6 sequence (Q07440 whole entry): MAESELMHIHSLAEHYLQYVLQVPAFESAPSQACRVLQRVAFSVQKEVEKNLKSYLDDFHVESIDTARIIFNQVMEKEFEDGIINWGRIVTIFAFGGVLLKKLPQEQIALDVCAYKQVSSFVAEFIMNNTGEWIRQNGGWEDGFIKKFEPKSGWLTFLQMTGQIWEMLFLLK
# [35] = target: T5, Ubiquitin-conjugating enzyme E2 N; type: functional; remark: listed apart in the source
# [36] = target: T2, Alkaline phosphatase, tissue-nonspecific isozyme; test: potency against alkaline phosphatase TNAP – biochemical, luminescent, dose response, SAR follow-up (AID 1056)
# [37] = target: Glyceraldehyde-3-phosphate dehydrogenase (Homo sapiens, UniProt P04406)
# Glyceraldehyde-3-phosphate dehydrogenase, sequence (P04406 whole entry): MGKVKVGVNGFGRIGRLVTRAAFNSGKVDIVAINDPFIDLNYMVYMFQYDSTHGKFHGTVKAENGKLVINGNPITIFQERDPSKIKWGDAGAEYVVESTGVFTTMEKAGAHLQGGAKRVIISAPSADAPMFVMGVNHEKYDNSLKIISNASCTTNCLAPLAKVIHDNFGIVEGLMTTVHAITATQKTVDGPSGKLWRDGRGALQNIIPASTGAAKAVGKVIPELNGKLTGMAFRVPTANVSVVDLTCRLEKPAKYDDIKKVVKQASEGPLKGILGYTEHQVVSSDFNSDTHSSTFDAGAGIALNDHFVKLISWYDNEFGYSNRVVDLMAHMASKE
structure (smiles),measurement,setting,value
CCOc1ccccc1N1CCN(S(=O)(=O)c2ccc3c4c(cccc24)C(=O)N3)CC1,IC50,[1],7.47 µM (active)
same,IC50,[2],9.19 µM (not active)
same,IC50,[3],7.13 µM (active)
same,IC50,[4],> 100 µM (inactive)
same,IC50,[5],81.2 µM (active)
O=C1c2ccccc2NC(c2ccc(-c3ccc(Br)cc3)o2)N1O (stereo not drawn),AC50,[6],6.74 µM (active)
same,IC50,[7],> 119 µM (inactive)
same,EC50,[8],> 38 µM (not active)
same,AC50,[9],4.35 µM (active)
same,EC50,[10],> 150 µM (inconclusive)
same,IC50,[11],> 119 µM (inactive)
same,IC50,[12],> 79 µM (inactive)
CCc1nc(-c2ccc(C)nc2OC)no1,IC50,[13],3.49 µM (active)
same,IC50,[14],4.74 µM (active)
COc1ccc(CN(CCC(c2ccccc2)c2ccc(OC(C)C)cc2)C(=O)CCl)cc1OC (stereo not drawn),EC50,[15],6.08 µM (active)
same,EC50,[16],3.74 µM (active)
same,EC50,[17],17.9 µM (active)
same,IC50,[18],6.94 µM (active)
same,EC50,[19],4.25 µM (active)
same,EC50,[20],3.43 µM (active)
same,IC50,[21],10.6 µM (active)
same,IC50,[22],3.17 µM (active)
same,EC50,[23],> 20 µM (inactive)
same,EC50,[24],0.605 µM (active)
same,AC50,[9],1.25 µM (active)
same,EC50,[25],6.29 µM (active)
same,IC50,[26],> 20 µM (inactive)
same,CC50,[27],1.49 µM (active)
same,IC50,[28],3.57 µM (active)
same,IC50,[29],13.9 µM (inactive)
same,EC50,[30],0.333 µM (active)
same,EC50,[31],4.09 µM (inconclusive)
same,AC50,[32],0.335 µM (active)
COc1ccc(/C=N\NC(=O)c2sc(N)nc2C)cc1OC,IC50,[33],0.507 µM (active)
same,IC50,[34],> 20 µM (inactive)
same,IC50,[35],0.548 µM (active)
CC(C)CSc1nnc(N)[nH]1,IC50,[36],60.8 µM (active)
same,IC50,[37],> 100 µM (not active)
